This is an account of results in ChEMBL document CHEMBL1140070, “Synthesis, structural studies and biological properties of new TBA analogues containing an acyclic nucleotide” (2008).

For experiment [1], the system named is Plasma. Nature of the experiment: Anticoagulant potency in citreated human plasma assessed as prolongation of thromboplastin-induced prothrombin time at 2 uM by coagulometer. The format is functional.
The target of experiment [2] is Prothrombin (Homo sapiens) (UniProt P00734). The experiment in a line: Binding affinity to human thrombin assessed as concentration required to double fibrinogen clotting time by coagulometer.
Experiment [3] has as its system Plasma. Nature of the experiment: Anticoagulant potency in citreated human plasma assessed as prolongation of thromboplastin-induced prothrombin time at 20 uM by coagulometer. The format is functional.

On to `Cc1cn([C@H]2C[C@H](OP(=O)(O)OC[C@H]3O[C@@H](n4cnc5c(=O)[nH]c(N)nc54)[C@H](O)[C@@H]3OP(=O)(O)OC[C@H]3O[C@@H](n4cnc5c(=O)[nH]c(N)nc54)[C@H](O)[C@@H]3OP(=O)(O)OC[C@H]3O[C@@H](n4cc(C)c(=O)[nH]c4=O)C[C@@H]3OP(=O)(O)OC[C@H]3O[C@@H](n4cc(C)c(=O)[nH]c4=O)C[C@@H]3OP(=O)(O)OC[C@H]3O[C@@H](n4cnc5c(=O)[nH]c(N)nc54)[C@H](O)[C@@H]3OP(=O)(O)OC[C@H]3O[C@@H](n4cnc5c(=O)[nH]c(N)nc54)[C@H](O)[C@@H]3O)[C@@H](COP(=O)(O)O[C@H]3[C@@H](O)[C@H](n4cnc5c(=O)[nH]c(N)nc54)O[C@@H]3COP(=O)(O)O[C@H]3C[C@H](n4cc(C)c(=O)[nH]c4=O)O[C@@H]3COP(=O)(O)O[C@H]3[C@@H](O)[C@H](n4cnc5c(=O)[nH]c(N)nc54)O[C@@H]3COP(=O)(O)O[C@H]3[C@@H](O)[C@H](n4cnc5c(=O)[nH]c(N)nc54)O[C@@H]3COP(=O)(O)O[C@H]3C[C@H](n4cc(C)c(=O)[nH]c4=O)O[C@@H]3COP(=O)(O)O[C@H]3C[C@H](n4cc(C)c(=O)[nH]c4=O)O[C@@H]3COP(=O)(O)O[C@H]3[C@@H](O)[C@H](n4cnc5c(=O)[nH]c(N)nc54)O[C@@H]3COP(=O)(O)O[C@H]3[C@@H](O)[C@H](n4cnc5c(=O)[nH]c(N)nc54)O[C@@H]3CO)O2)c(=O)[nH]c1=O` [THROMBIN APTAMER], for which the Activity worked out at 22.6 s in experiment [1], 175 nM in experiment [2] and 53.68 s in experiment [3].

With `Cc1cn(CC(C)(COP(=O)(O)OC[C@H]2O[C@@H](n3cnc4c(=O)[nH]c(N)nc43)[C@H](O)[C@@H]2OP(=O)(O)OC[C@H]2O[C@@H](n3cnc4c(=O)[nH]c(N)nc43)[C@H](O)[C@@H]2OP(=O)(O)OC[C@H]2O[C@@H](n3cc(C)c(=O)[nH]c3=O)C[C@@H]2OP(=O)(O)OC[C@H]2O[C@@H](n3cnc4c(=O)[nH]c(N)nc43)[C@H](O)[C@@H]2OP(=O)(O)OC[C@H]2O[C@@H](n3cc(C)c(=O)[nH]c3=O)C[C@@H]2OP(=O)(O)OC[C@H]2O[C@@H](n3cnc4c(=O)[nH]c(N)nc43)[C@H](O)[C@@H]2OP(=O)(O)OC[C@H]2O[C@@H](n3cnc4c(=O)[nH]c(N)nc43)[C@H](O)[C@@H]2OP(=O)(O)OC[C@H]2O[C@@H](n3cc(C)c(=O)[nH]c3=O)C[C@@H]2OP(=O)(O)OC[C@H]2O[C@@H](n3cc(C)c(=O)[nH]c3=O)C[C@@H]2OP(=O)(O)OC[C@H]2O[C@@H](n3cnc4c(=O)[nH]c(N)nc43)[C@H](O)[C@@H]2OP(=O)(O)OC[C@H]2O[C@@H](n3cnc4c(=O)[nH]c(N)nc43)[C@H](O)[C@@H]2O)COP(=O)(O)O[C@H]2C[C@H](n3cc(C)c(=O)[nH]c3=O)O[C@@H]2COP(=O)(O)O[C@H]2[C@@H](O)[C@H](n3cnc4c(=O)[nH]c(N)nc43)O[C@@H]2COP(=O)(O)O[C@H]2[C@@H](O)[C@H](n3cnc4c(=O)[nH]c(N)nc43)O[C@@H]2CO)c(=O)[nH]c1=O` (stereo partly specified), the figures for the Activity in experiment [1], in experiment [2] and in experiment [3] were 14.5 s, 250 nM and 32.28 s, respectively.

On to `Cc1cn(CC(C)(COP(=O)(O)OC[C@H]2O[C@@H](n3cnc4c(=O)[nH]c(N)nc43)[C@H](O)[C@@H]2OP(=O)(O)OC[C@H]2O[C@@H](n3cnc4c(=O)[nH]c(N)nc43)[C@H](O)[C@@H]2O)COP(=O)(O)O[C@H]2C[C@H](n3cc(C)c(=O)[nH]c3=O)O[C@@H]2COP(=O)(O)O[C@H]2[C@@H](O)[C@H](n3cnc4c(=O)[nH]c(N)nc43)O[C@@H]2COP(=O)(O)O[C@H]2[C@@H](O)[C@H](n3cnc4c(=O)[nH]c(N)nc43)O[C@@H]2COP(=O)(O)O[C@H]2C[C@H](n3cc(C)c(=O)[nH]c3=O)O[C@@H]2COP(=O)(O)O[C@H]2[C@@H](O)[C@H](n3cnc4c(=O)[nH]c(N)nc43)O[C@@H]2COP(=O)(O)O[C@H]2C[C@H](n3cc(C)c(=O)[nH]c3=O)O[C@@H]2COP(=O)(O)O[C@H]2[C@@H](O)[C@H](n3cnc4c(=O)[nH]c(N)nc43)O[C@@H]2COP(=O)(O)O[C@H]2[C@@H](O)[C@H](n3cnc4c(=O)[nH]c(N)nc43)O[C@@H]2COP(=O)(O)O[C@H]2C[C@H](n3cc(C)c(=O)[nH]c3=O)O[C@@H]2COP(=O)(O)O[C@H]2C[C@H](n3cc(C)c(=O)[nH]c3=O)O[C@@H]2COP(=O)(O)O[C@H]2[C@@H](O)[C@H](n3cnc4c(=O)[nH]c(N)nc43)O[C@@H]2COP(=O)(O)O[C@H]2[C@@H](O)[C@H](n3cnc4c(=O)[nH]c(N)nc43)O[C@@H]2CO)c(=O)[nH]c1=O` (stereo partly specified), for which the Activity in experiment [1] stood at 17.5 s; in experiment [2], 100 nM; in experiment [3], 46.97 s.

For the compound `Cc1cn(CC(C)(COP(=O)(O)OC[C@H]2O[C@@H](n3cnc4c(=O)[nH]c(N)nc43)[C@H](O)[C@@H]2OP(=O)(O)OC[C@H]2O[C@@H](n3cc(C)c(=O)[nH]c3=O)C[C@@H]2OP(=O)(O)OC[C@H]2O[C@@H](n3cnc4c(=O)[nH]c(N)nc43)[C@H](O)[C@@H]2OP(=O)(O)OC[C@H]2O[C@@H](n3cnc4c(=O)[nH]c(N)nc43)[C@H](O)[C@@H]2OP(=O)(O)OC[C@H]2O[C@@H](n3cc(C)c(=O)[nH]c3=O)C[C@@H]2OP(=O)(O)OC[C@H]2O[C@@H](n3cc(C)c(=O)[nH]c3=O)C[C@@H]2OP(=O)(O)OC[C@H]2O[C@@H](n3cnc4c(=O)[nH]c(N)nc43)[C@H](O)[C@@H]2OP(=O)(O)OC[C@H]2O[C@@H](n3cnc4c(=O)[nH]c(N)nc43)[C@H](O)[C@@H]2O)COP(=O)(O)O[C@H]2[C@@H](O)[C@H](n3cnc4c(=O)[nH]c(N)nc43)O[C@@H]2COP(=O)(O)O[C@H]2[C@@H](O)[C@H](n3cnc4c(=O)[nH]c(N)nc43)O[C@@H]2COP(=O)(O)O[C@H]2C[C@H](n3cc(C)c(=O)[nH]c3=O)O[C@@H]2COP(=O)(O)O[C@H]2C[C@H](n3cc(C)c(=O)[nH]c3=O)O[C@@H]2COP(=O)(O)O[C@H]2[C@@H](O)[C@H](n3cnc4c(=O)[nH]c(N)nc43)O[C@@H]2COP(=O)(O)O[C@H]2[C@@H](O)[C@H](n3cnc4c(=O)[nH]c(N)nc43)O[C@@H]2CO)c(=O)[nH]c1=O` (stereo partly specified), the Activity was found to be 24.67 s in experiment [1], 70 nM in experiment [2] and 60.2 s in experiment [3].

On to `Cc1cn(CC(C)(COP(=O)(O)OC[C@H]2O[C@@H](n3cc(C)c(=O)[nH]c3=O)C[C@@H]2OP(=O)(O)OC[C@H]2O[C@@H](n3cnc4c(=O)[nH]c(N)nc43)[C@H](O)[C@@H]2OP(=O)(O)OC[C@H]2O[C@@H](n3cnc4c(=O)[nH]c(N)nc43)[C@H](O)[C@@H]2OP(=O)(O)OC[C@H]2O[C@@H](n3cc(C)c(=O)[nH]c3=O)C[C@@H]2OP(=O)(O)OC[C@H]2O[C@@H](n3cnc4c(=O)[nH]c(N)nc43)[C@H](O)[C@@H]2OP(=O)(O)OC[C@H]2O[C@@H](n3cc(C)c(=O)[nH]c3=O)C[C@@H]2OP(=O)(O)OC[C@H]2O[C@@H](n3cnc4c(=O)[nH]c(N)nc43)[C@H](O)[C@@H]2OP(=O)(O)OC[C@H]2O[C@@H](n3cnc4c(=O)[nH]c(N)nc43)[C@H](O)[C@@H]2OP(=O)(O)OC[C@H]2O[C@@H](n3cc(C)c(=O)[nH]c3=O)C[C@@H]2OP(=O)(O)OC[C@H]2O[C@@H](n3cc(C)c(=O)[nH]c3=O)C[C@@H]2OP(=O)(O)OC[C@H]2O[C@@H](n3cnc4c(=O)[nH]c(N)nc43)[C@H](O)[C@@H]2OP(=O)(O)OC[C@H]2O[C@@H](n3cnc4c(=O)[nH]c(N)nc43)[C@H](O)[C@@H]2O)COP(=O)(O)O[C@H]2[C@@H](O)[C@H](n3cnc4c(=O)[nH]c(N)nc43)O[C@@H]2COP(=O)(O)O[C@H]2[C@@H](O)[C@H](n3cnc4c(=O)[nH]c(N)nc43)O[C@@H]2CO)c(=O)[nH]c1=O` (stereo partly specified), for which the values for the Activity in experiment [1], in experiment [2] and in experiment [3] were 14.3 s, 238 nM and 35.15 s, respectively.

Take `Cc1cn(CC(C)(COP(=O)(O)OC[C@H]2O[C@@H](n3cc(C)c(=O)[nH]c3=O)C[C@@H]2OP(=O)(O)OC[C@H]2O[C@@H](n3cnc4c(=O)[nH]c(N)nc43)[C@H](O)[C@@H]2OP(=O)(O)OC[C@H]2O[C@@H](n3cnc4c(=O)[nH]c(N)nc43)[C@H](O)[C@@H]2O)COP(=O)(O)O[C@H]2[C@@H](O)[C@H](n3cnc4c(=O)[nH]c(N)nc43)O[C@@H]2COP(=O)(O)O[C@H]2[C@@H](O)[C@H](n3cnc4c(=O)[nH]c(N)nc43)O[C@@H]2COP(=O)(O)O[C@H]2C[C@H](n3cc(C)c(=O)[nH]c3=O)O[C@@H]2COP(=O)(O)O[C@H]2[C@@H](O)[C@H](n3cnc4c(=O)[nH]c(N)nc43)O[C@@H]2COP(=O)(O)O[C@H]2C[C@H](n3cc(C)c(=O)[nH]c3=O)O[C@@H]2COP(=O)(O)O[C@H]2[C@@H](O)[C@H](n3cnc4c(=O)[nH]c(N)nc43)O[C@@H]2COP(=O)(O)O[C@H]2[C@@H](O)[C@H](n3cnc4c(=O)[nH]c(N)nc43)O[C@@H]2COP(=O)(O)O[C@H]2C[C@H](n3cc(C)c(=O)[nH]c3=O)O[C@@H]2COP(=O)(O)O[C@H]2C[C@H](n3cc(C)c(=O)[nH]c3=O)O[C@@H]2COP(=O)(O)O[C@H]2[C@@H](O)[C@H](n3cnc4c(=O)[nH]c(N)nc43)O[C@@H]2COP(=O)(O)O[C@H]2[C@@H](O)[C@H](n3cnc4c(=O)[nH]c(N)nc43)O[C@@H]2CO)c(=O)[nH]c1=O` (stereo partly specified): the Activity in experiment [1] amounted to 18.07 s; in experiment [2], 78 nM; in experiment [3], 44.83 s.

Take `Cc1cn(CC(C)(COP(=O)(O)OC[C@H]2O[C@@H](n3cnc4c(=O)[nH]c(N)nc43)[C@H](O)[C@@H]2OP(=O)(O)OC[C@H]2O[C@@H](n3cnc4c(=O)[nH]c(N)nc43)[C@H](O)[C@@H]2OP(=O)(O)OC[C@H]2O[C@@H](n3cc(C)c(=O)[nH]c3=O)C[C@@H]2OP(=O)(O)OC[C@H]2O[C@@H](n3cc(C)c(=O)[nH]c3=O)C[C@@H]2OP(=O)(O)OC[C@H]2O[C@@H](n3cnc4c(=O)[nH]c(N)nc43)[C@H](O)[C@@H]2OP(=O)(O)OC[C@H]2O[C@@H](n3cnc4c(=O)[nH]c(N)nc43)[C@H](O)[C@@H]2O)COP(=O)(O)O[C@H]2[C@@H](O)[C@H](n3cnc4c(=O)[nH]c(N)nc43)O[C@@H]2COP(=O)(O)O[C@H]2C[C@H](n3cc(C)c(=O)[nH]c3=O)O[C@@H]2COP(=O)(O)O[C@H]2[C@@H](O)[C@H](n3cnc4c(=O)[nH]c(N)nc43)O[C@@H]2COP(=O)(O)O[C@H]2[C@@H](O)[C@H](n3cnc4c(=O)[nH]c(N)nc43)O[C@@H]2COP(=O)(O)O[C@H]2C[C@H](n3cc(C)c(=O)[nH]c3=O)O[C@@H]2COP(=O)(O)O[C@H]2C[C@H](n3cc(C)c(=O)[nH]c3=O)O[C@@H]2COP(=O)(O)O[C@H]2[C@@H](O)[C@H](n3cnc4c(=O)[nH]c(N)nc43)O[C@@H]2COP(=O)(O)O[C@H]2[C@@H](O)[C@H](n3cnc4c(=O)[nH]c(N)nc43)O[C@@H]2CO)c(=O)[nH]c1=O` (stereo partly specified): the Activity in experiment [1] amounted to 13.23 s; in experiment [2], 210 nM; in experiment [3] it was 34.65 s.
